Test results from patent publication US20080234355A1, “DNA METHYL TRANSFERASE INHIBITORS CONTAINING A ZINC BINDING MOIETY” (priority 2006, published 2008).

Columns and labels:
HDAC = HDAC fluorimetric assay kit (AK-500, Biomol), HeLa nuclear extract; format: biochemical; conditions: Fluor de Lys substrate, 1 hour reaction, read-out: HDAC IC50 (grade)
Experimental: (a) An In Vitro Assay which Determines the Ability of a Test Compound to Inhibit HDAC Enzymatic Activity.
HDAC inhibitors were screened using an HDAC fluorimetric assay kit (AK-500, Biomol, Plymouth Meeting, Pa.). Test compounds were dissolved in dimethylsulphoxide (DMSO) to give a 20 mM working stock concentration. Fluorescence was measured on a WALLAC Victor 2 plate reader and reported as relative fluorescence units (RFU). Data were plotted using GraphPad Prism (v4.0a) and IC50's calculated using a sigmoidal dose response curve fitting algorithm.
Each assay was setup as follows: Defrosted all kit components and kept on ice until use. Diluted HeLa nuclear extract 1:29 in Assay Buffer (50 mM Tris/Cl, pH 8.0, 137 mM NaCl, 2.7 mM KCl, 1 mM MgCl2). Prepared dilutions of Trichostatin A (TSA, positive control) and tested compounds in assay buffer (5× of final concentration). Diluted Fluor de Lys™ Substrate in assay buffer to 100 uM (50 fold=2× final). Diluted Fluor de Lys™ developer concentrate 20-fold (e.g. 50 μl plus 950 μl Assay Buffer) in cold assay buffer. Second, diluted the 0.2 mM Trichostatin A 100-fold in the 1× Developer (e.g. 10 μl in 1 ml; final Trichostatin A concentration in the 1× Developer=2 μM; final concentration after addition to HDAC/Substrate reaction=1 μM). Added Assay buffer, diluted trichostatin A or test inhibitor to appropriate wells of the microtiter plate. Added diluted HeLa extract or other HDAC sample to all wells except for negative controls. Allowed diluted Fluor de Lys™ Substrate and the samples in the microtiter plate to equilibrate to assay temperature (e.g. 25 or 37° C. Initiated HDAC reactions by adding diluted substrate (25 μl) to each well and mixing thoroughly. Allowed HDAC reactions to proceed for 1 hour and then stopped them by addition of Fluor de Lys™ Developer (50 μl). Incubated plate at room temperature (25° C.) for 10-15 min. Read samples in a microtiter-plate reading fluorimeter capable of excitation at a wavelength in the range 350-380 nm and detection of emitted light in the range 440-460 nm.

[1] = system: ER mRNA expression in human ER-negative breast cancer cell lines; conditions: cited from earlier work
[2] = system: gelatinase A (MMP2; Type IV collagenase); conditions: 3T3 cells; cited from earlier work

Row | SMILES | IC50 (HDAC) [µM] | other results
1 | Nc1ccc(C(=O)NCCNCCC(=O)NO)cc1 [Compound 25] | > 10 | 
2 | Nc1ccc(C(=O)NCCNCCC(=O)CCC(=O)NO)cc1 [Compound 28] | > 10 | 
3 | Nc1ccc(C(=O)NCCNC(=O)CCCC(=O)NO)cc1 [Compound 29, N-hydroxy-4-(2-(4-aminobenzamido)-ethylcarbamoyl)butanamide] | 0.1 to 1 | melting point: 158.9 to 159.8 °C
4 | Nc1ccc(C(=O)NCCNC(=O)CCCCC(=O)NO)cc1 [Compound 30] | 1 to 10 | 
5 | CCN(CCNC(=O)c1ccc(N)cc1)C(=O)CCC(=O)NO [Compound 34, N^1-(2-(4-aminobenzamido)ethyl)-N^1-ethyl-N^4-hydroxysuccinamide] | > 10 | 
6 | CCN(CCNC(=O)c1ccc(N)cc1)C(=O)CCCCC(=O)NO [Compound 36, N^1-(2-(4-aminobenzamido)ethyl)-N^1-ethyl-N^6-hydroxyadipamide] | 1 to 10 | 
7 | CC(/C=C/C(=O)NO)=C\[C@@H](C)C(=O)c1ccc(N(C)C)cc1 [TSA, trichostatin A] |  | increase in ER mRNA expression [1]: 5 fold; mRNA as well as zymographic activity of gelatinase A (MMP2) [2]: decreases
